The text below walks through data of ChEMBL document CHEMBL5346946, “Targeting Arginine Methyltransferase PRMT5 for Cancer Therapy: Updated Progress and Novel Strategies” (J Med Chem, 2023).

Series [1] addresses Voltage-gated inwardly rectifying potassium channel KCNH2 (Homo sapiens, UniProt Q12809). In words: Inhibition of hERG potassium channel in human HEK293 cells by manual patch clamp assay. Format: toxicity, cell-based. For orientation: Block of hERG is tested as a sign of cardiac risk.
Series [2] relates to Z-138. Put plainly: Antiproliferative activity against human Z138 cells assessed as cell growth inhibition measured after 7 days by CCK-8 assay. It is filed as functional, cell-based. To be noted: Z-138, 168 h.
In the next series the test system is MDA-MB-468. In words: Antiproliferative activity against human MDA-MB-468 assessed as cell growth inhibition measured after 7 days by CCK-8 assay. Format: functional, cell-based. To be noted: MDA-MB-468, 168 h. A general note: Tetrazolium assays rely on reduction of a dye to a coloured formazan, in cell work by metabolically active cells.
A further series relates to NCI-H358. In words: Antiproliferative activity against human NCI-H358 assessed as cell growth inhibition measured after 7 days by CCK-8 assay. Format: functional, cell-based. To be noted: NCI-H358, 168 h.
The subject of series [3] is NCI-H1048. Put plainly: Antiproliferative activity against human NCI-H1048 cells assessed as cell growth inhibition incubated for 6 days by MTT assay. Format: functional. To be noted: NCI-H1048, 144 h, time 6 day.
The target of series [4] is PRMT5/MEP50 complex (Homo sapiens) (UniProt O14744+Q9BQA1). Put plainly: Binding affinity to Full-length human PRMT5/human MEP50 assessed as association constant by SPR analysis. It is filed as protein-complex assay. On the technique in general: SPR reads the build-up and loss of mass on a sensor chip optically.
Series [5] deals with T1, Protein arginine N-methyltransferase 5 (Homo sapiens, UniProt O14744). In words: Inhibition of PRMT5 in human NCI-H1048 cells assessed as reduction in dimethylation of SmD1/3 at 1 nM incubated for 48 hrs relative to control. It is filed as cell-based.
T1 sequence (O14744 whole entry): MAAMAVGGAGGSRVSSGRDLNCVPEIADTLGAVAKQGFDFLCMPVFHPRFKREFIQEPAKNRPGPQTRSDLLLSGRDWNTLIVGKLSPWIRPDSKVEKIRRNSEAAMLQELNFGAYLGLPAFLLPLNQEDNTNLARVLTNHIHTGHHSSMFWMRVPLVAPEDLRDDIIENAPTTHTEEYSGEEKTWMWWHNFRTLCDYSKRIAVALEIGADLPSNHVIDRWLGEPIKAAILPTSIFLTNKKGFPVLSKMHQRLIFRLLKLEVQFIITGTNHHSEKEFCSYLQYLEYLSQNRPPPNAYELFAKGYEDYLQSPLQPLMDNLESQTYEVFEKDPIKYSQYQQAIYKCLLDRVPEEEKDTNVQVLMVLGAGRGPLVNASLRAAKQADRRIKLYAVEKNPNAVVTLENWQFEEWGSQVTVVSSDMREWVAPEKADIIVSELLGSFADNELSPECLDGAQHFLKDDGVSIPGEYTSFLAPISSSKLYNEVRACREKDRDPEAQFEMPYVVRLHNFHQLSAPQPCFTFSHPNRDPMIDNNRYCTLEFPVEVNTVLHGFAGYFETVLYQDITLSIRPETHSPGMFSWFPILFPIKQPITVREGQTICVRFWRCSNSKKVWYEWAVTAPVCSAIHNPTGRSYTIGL
Series [6] deals with T1, Protein arginine N-methyltransferase 5. In words: Inhibition of PRMT5 in human NCI-H1048 cells assessed as reduction in dimethylation of SmD1/3 at 10 nM incubated for 48 hrs relative to control. It is filed as cell-based.
Series [7] has as its system NCI-H1048. In words: Antitumor activity against human NCI-H1048 cells xenografted in mouse assessed as tumor growth inhibition at 10 mg/kg, po administered daily for 28 days relative to control. It is filed as functional. To be noted: NCI-H1048, 672 h, time 28 day, read-out: TGI.
Series [8] relates to NCI-H1048. In words: Antitumor activity against human NCI-H1048 cells xenografted in mouse assessed as tumor growth inhibition at 10 mg/kg, po administered daily for 28 days with two cycles of 7 days of treatment followed by 7 days without treatment relative to control. It is filed as functional. The settings on record: NCI-H1048, 672 h, time 28 day, read-out: TGI.
The target in series [9] is T2, PRMT5/MEP50 complex (Homo sapiens, UniProt O14744). Put plainly: Binding affinity to N-terminal 6xHis-tagged full length human PRMT5/MEP50 expressed in sf21 cells using S-Adenosyl-L-methionine as substrate assessed as dissociation constant incubated for 25 to 60 mins by liquid scintillation analysis.
T2 sequence (O14744 whole entry): as above
T2 sequence (Q9BQA1 whole entry, further chain): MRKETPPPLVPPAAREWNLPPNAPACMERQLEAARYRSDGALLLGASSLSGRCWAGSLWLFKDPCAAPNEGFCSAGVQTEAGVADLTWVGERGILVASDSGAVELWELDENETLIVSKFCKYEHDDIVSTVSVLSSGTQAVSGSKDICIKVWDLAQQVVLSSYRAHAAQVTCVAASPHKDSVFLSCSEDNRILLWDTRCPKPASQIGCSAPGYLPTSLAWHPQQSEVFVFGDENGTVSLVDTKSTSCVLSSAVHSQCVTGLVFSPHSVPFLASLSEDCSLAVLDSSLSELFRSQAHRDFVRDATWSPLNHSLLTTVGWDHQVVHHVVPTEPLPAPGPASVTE
In series [10] the target is T1, Protein arginine N-methyltransferase 5. Put plainly: Inhibition of PRMT5 in human A427 cells assessed as reduction in sDMA level incubated for 72 hrs by liquid scintillation analysis.
In series [11] the test system is A-427. Put plainly: Antitumor activity in human A-427 harboring RBM10 I348N mutant xenografted in mouse model assessed as tumor growth inhibition at 3 mg/kg administered once daily and measured after 44 days relative to control. Format: functional. To be noted: A-427, 1056 h, time 44 day, read-out: TGI.
The test system of series [12] is A-427. In words: Antitumor activity in human A-427 harboring RBM10 I348N mutant xenografted in mouse model assessed as tumor growth inhibition at 10 mg/kg administered once daily and measured after 44 days relative to control. Format: functional. The settings on record: A-427, 1056 h, time 44 day, read-out: TGI.
Series [13] concerns A-427. In words: Antitumor activity in human A-427 harboring RBM10 I348N mutant xenografted in mouse model assessed as tumor growth inhibition at 30 mg/kg administered once daily and measured after 44 days relative to control. It is filed as functional. The settings on record: A-427, 1056 h, time 44 day, read-out: TGI.
Series [14] in a line: In vivo inhibition of PMRT5 in mouse xenografted with human A427 cells assessed as reduction in sDMA level by ELISA (reference value: 66.4%). Format: functional, A-427.
Series [15] in a line: Clearance in rat. Format: ADME. To be noted: in vivo.
Series [16] is described as follows: Volume of distribution at steady state in rat at 2 mg/kg, iv. Format: ADME, organism-based. To be noted: in vivo, read-out: Vdss.
A short description of series [17]: Oral bioavailability in rat at 10 mg/kg. Format: ADME, organism-based. The settings on record: in vivo.
Series [18] concerns the target T1, Protein arginine N-methyltransferase 5. In words: Inhibition of PRMT5 in human U-87 MG cells assessed as suppression of sDMA level incubated for 3 days by western blot analysis. It is filed as cell-based.
Series [19] has the same target. Put plainly: Inhibition of PRMT5 (unknown origin).
Series [20] has the same target. Put plainly: Inhibition of PRMT5 in human Z138 cells assessed as suppression of sDMA level. It is filed as cell-based.
Series [21] deals with Z-138. Put plainly: Antiproliferative activity against human Z138 cells. Format: functional, cell-based.
Series [22] relates to Z-138. Put plainly: Antitumor activity against human Z138 cells xenografted in mouse as tumor growth inhibition at 1.5 mg/kg, po administered twice daily relative to control. The settings on record: read-out: TGI. Format: functional.
The test system of series [23] is Z-138. Put plainly: Antitumor activity against human Z138 cells xenografted in mouse as tumor growth inhibition at 5 mg/kg, po administered twice daily relative to control. It is filed as functional. To be noted: read-out: TGI.
Series [24] deals with Z-138. Put plainly: Antitumor activity against human Z138 cells xenografted in mouse as tumor growth inhibition at 15 mg/kg, po administered twice daily relative to control. The settings on record: read-out: TGI. It is filed as functional.
A further series has as its system U-87 MG. Put plainly: Anti-proliferative activity against human U-87 MG cells assessed as cell growth inhibition incubated for 3 days by CCK-8 assay. It is filed as functional, cell-based, U-87MG ATCC. To be noted: 72 h.
Series [25] deals with T2, PRMT5/MEP50 complex. In words: Inhibition of PRMT5/MEP50 (unknown origin) using histone H4 peptide as substrate preincubated for 30 mins followed by substrate addition and measured for 60 mins by AlphaScreen analysis. It is filed as protein-complex assay.
Series [26] relates to Z-138. In words: Anti-proliferative activity against human Z138 cells assessed as cell growth inhibition incubated for 8 days by Cell-Titer Glo assay. Format: functional, cell-based. To be noted: Z-138, 192 h.
In series [27] the target is T1, Protein arginine N-methyltransferase 5. Put plainly: Inhibition of PRMT5 in human Z138 cells assessed as decrease in sDMA modification incubated for 2 days by fluorescence based assay. Format: cell-based.
The nature of series [28]: Oral bioavailability in CB17-SCID mouse at 10 mg/kg incubated for 24 hrs by LC-MS/MS analysis. The settings on record: in vivo. Format: ADME, organism-based.
Series [29] has as its system Z-138. Put plainly: Antitumor activity against human Z138 cells xenografted in CB17-SCID mouse at 50 mg/kg, po QD for 3 weeks relative to control. It is filed as functional. To be noted: Z-138, 504 h, read-out: TGI.
A further series relates to HCT-116. Put plainly: Anti-proliferative activity against wild type human HCT-116 cells assessed as cell growth inhibition incubated overnight by CellTiter-Glo luminescent assay. It is filed as functional, cell-based.
Series [30] in a line: Anti-proliferative activity against human HCT116-MTAP null cells assessed as cell growth inhibition incubated overnight by CellTiter-Glo luminescent assay. Format: functional, cell-based.
Series [31] deals with T2, PRMT5/MEP50 complex. In words: Binding affinity to PRMT5/MEP50 (unknown origin) using histone H4 peptide assessed as inhibition constant preincubated for 24 hrs followed by substrate addition and measured for 2 hrs in the presence of SAM by MTase-Glo Methyl Transferase Assay. It is filed as protein-complex assay.
Series [32] can be described thus: Anti-proliferative activity against human HCT116-MTAP null cells assessed as cell growth inhibition incubated for 6 days by CellTiter-Glo Luminescent Cell Viability Assay. Format: functional, cell-based. The settings on record: 144 h.

Voltage-gated inwardly rectifying potassium channel KCNH2, sequence (Q12809 whole entry): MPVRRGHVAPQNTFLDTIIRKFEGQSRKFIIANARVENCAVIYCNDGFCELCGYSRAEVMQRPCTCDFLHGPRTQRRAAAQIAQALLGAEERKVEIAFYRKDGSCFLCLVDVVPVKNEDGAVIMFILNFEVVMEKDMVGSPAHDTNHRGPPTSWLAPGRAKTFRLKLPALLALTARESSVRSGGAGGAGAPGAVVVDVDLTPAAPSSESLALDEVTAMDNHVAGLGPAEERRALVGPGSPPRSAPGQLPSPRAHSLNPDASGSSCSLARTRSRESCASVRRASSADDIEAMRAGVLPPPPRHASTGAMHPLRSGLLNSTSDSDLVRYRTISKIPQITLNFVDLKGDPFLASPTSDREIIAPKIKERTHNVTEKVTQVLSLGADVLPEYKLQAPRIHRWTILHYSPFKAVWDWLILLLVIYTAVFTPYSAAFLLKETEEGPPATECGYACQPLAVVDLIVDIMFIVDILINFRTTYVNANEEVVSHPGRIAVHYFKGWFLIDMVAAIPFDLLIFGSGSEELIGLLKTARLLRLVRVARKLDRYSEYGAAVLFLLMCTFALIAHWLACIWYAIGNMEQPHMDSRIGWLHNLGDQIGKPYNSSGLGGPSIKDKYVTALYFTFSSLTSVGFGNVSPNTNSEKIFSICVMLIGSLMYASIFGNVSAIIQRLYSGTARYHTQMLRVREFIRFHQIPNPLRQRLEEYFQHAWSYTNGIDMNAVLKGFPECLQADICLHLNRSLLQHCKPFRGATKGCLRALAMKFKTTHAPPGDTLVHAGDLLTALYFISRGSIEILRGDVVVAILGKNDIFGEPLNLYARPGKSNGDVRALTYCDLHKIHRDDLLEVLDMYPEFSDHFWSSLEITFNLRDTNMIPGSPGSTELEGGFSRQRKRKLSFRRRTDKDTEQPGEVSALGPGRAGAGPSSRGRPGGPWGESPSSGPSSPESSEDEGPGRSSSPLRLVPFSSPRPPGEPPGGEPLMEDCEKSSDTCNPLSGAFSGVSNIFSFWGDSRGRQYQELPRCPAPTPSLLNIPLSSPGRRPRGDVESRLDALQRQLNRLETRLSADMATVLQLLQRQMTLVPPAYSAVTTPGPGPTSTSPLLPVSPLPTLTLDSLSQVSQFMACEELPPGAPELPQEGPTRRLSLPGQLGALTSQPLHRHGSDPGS

Broadly, the IC50 is the concentration that gives 50% inhibition. As to `CC(=O)N1CC2(CC(Nc3cc4c(cn3)C3(CC3)CN(C[C@H](O)CN3CCc5ccccc5C3)C4=O)C2)C1`, the concentration for half-maximal inhibition (IC50) was 15100 nM in series [1], 2.2 nM with Z-138 [2], 7.4 nM in the series with MDA-MB-468 and 5 nM in the series with NCI-H358.
A word on the GI50: it is the concentration giving 50% growth inhibition. By inhibition is commonly meant the share of the control response that was lost under treatment. `Nc1nc2cc(CC[C@H]3C[C@@H](n4ccc5c(N)ncnc54)[C@H](O)[C@@H]3O)ccc2cc1Br` [ONAMETOSTAT]: the concentration for 50% growth inhibition (GI50) with NCI-H1048 [3] stood at 1.3 nM. Further, in [4], the Ka was 6.3 10^5/M/s. Besides, the inhibition in series [5] is greater than 50%; in [6], 80%. Besides, the inhibition in vivo at 10 mg/kg with NCI-H1048 [7] came to 77%; in the series on NCI-H1048 [8] it was 67%.
Usually Kd stands for the constant that tells how readily two partners part at equilibrium. For orientation: clearance means the volume of plasma or blood freed of the substance per unit of time. Higher therefore signals a high capacity for elimination. Broadly, the bioavailability is the share of a dose that reaches the circulation, judged against a reference dose that is usually intravenous. For the compound `Cc1ncnc2c1ccn2[C@@H]1C[C@H](Oc2cc(C(F)F)c(F)c3c2CNCC3)[C@@H](O)[C@H]1O`, the equilibrium dissociation constant (Kd) at PRMT5/MEP50 complex [9] is 0.0114 nM. Also, the IC50 in series [10] was 1.1 nM. The inhibition in vivo at 3 mg/kg in the series on A-427 [11] is 52.1%. The inhibition in vivo at 10 mg/kg in the series with A-427 [12] was 74.9%. Also, in the series on A-427 [13], the inhibition in vivo at 30 mg/kg came out at 101%. Moreover, in [14], the “inhibition (INH)” value was found to be 79.8%. This compound also came in with a clearance in [15] of 40 mL/min/kg. In [16], the Vd was 3.8 L/kg. In addition, in [17], the bioavailability amounted to 40%.
Turning to `Nc1ncnc2c1ccn2[C@@H]1O[C@H]([C@@H]2OCc3cc(Cl)ccc32)[C@@H](O)[C@H]1O`, the IC50 in series [18] was found to be 120 nM.
Regarding `CCN1CCN(C[C@@H](O)[C@@H]2Cc3ccccc3CN2)C(=O)c2ccc(C(=O)N3CCC4(CC3)CC(OC)C4)cc21`, the IC50 in [19] is 4.2 nM; in series [20] it was 1.4 nM; in the series on Z-138 [21], 2.2 nM. Further, in the series on Z-138 [22], the inhibition in vivo at 1.5 mg/kg was 36%. Also, in the series on Z-138 [23], the inhibition in vivo at 5 mg/kg came out at 47.8%. Besides, the inhibition in vivo at 15 mg/kg in the series with Z-138 [24] was 112%.
Consider `Nc1ncnc2c1ccn2[C@@H]1O[C@H]([C@H](O)c2ccc(Cl)c(F)c2)[C@@H](O)[C@H]1O`, for which the Kd at PRMT5/MEP50 complex [9] was determined as 0.241 nM.
`Nc1ncnc2c1ccn2[C@@H]1O[C@H]([C@@H]2OCCc3cc(Cl)ccc32)[C@@H](O)[C@H]1O`: the half-inhibitory concentration (IC50) in the series with U-87 MG came out at 2.6 nM.
Regarding `CC1(C)CN(C[C@@H](O)[C@@H]2Cc3ccccc3CN2)C(=O)c2ccc(C(=O)N3CCC4(CC3)CC4)cc21`, the IC50 was found to be 2.8 nM against PRMT5/MEP50 complex [25], 0.3 nM in the series on Z-138 [26] and 0.8 nM in [27]. The same compound came in with a bioavailability in series [28] of 46.2%. Moreover, in the series with Z-138 [29], the inhibition in vivo at 50 mg/kg worked out at 93.2%.
What is called Ki is a dissociation constant, usually derived from enzyme kinetics or from competition with a known ligand. In the case of `Cc1cc2cc(C(=O)N(Cc3ccc(C(F)(F)F)cn3)[C@@H]3CCCc4[nH]ncc43)ccc2nc1N`, the IC50 in the series on HCT-116 was determined as 142 nM; in [30], 10 nM; in [32] it was 5 nM. For the same compound, the Ki on PRMT5/MEP50 complex [31] was 0.05 nM.
The compound `CC(=O)N1CCC(Nc2cc3c(cn2)C2(CC2)CN(C[C@H](O)CN2CCc4ccccc4C2)C3=O)CC1` had an IC50 in [1] of 5200 nM.
